Experimental data reported in article PMC8929329, “The pharmaceutical excipient PEG400 affect the absorption of baicalein in Caco‐2 monolayer model by interacting with UDP‐glucuronosyltransferases and efflux transport proteins” (Pharmacology Research & Perspectives, 2022).
Where two headings read alike, the source gives them in different places.

Key:
UGT1A9 = assay: Enzyme activity assay, intestinal microsome incubation: baicalein glucuronidation to BG; type: in vitro ADME, human; conditions: BG formation (UGT1A9)
Method: (§1) In this experiment, the effect of PEG400 on the enzyme activities of UGT1A8 and UGT1A9 was evaluated by in vitro microsome incubation. The activity of UGT1A8 and UGT1A9 was determined by detecting the production of BG and B6G with B as substrate.
(§2) The incubation system contained 10 µl of 50 mM Tris‐HCl (pH 7.4) buffer, 10 µl of 5 mM MgCl2 solution, 10 µl of 0.2 mg/ml alamethicin (Aladdin Biochemical Technology), and 20 µl of intestinal microsomes (Xenotech). The incubation system was pre‐incubated on ice for 15 min prior to experiment. Then, added 20 µl baicalein (dissolved in 50 mM Tris‐HCl) and PEG400 (20 µl) or 50 mM Tris‐HCl (20 µl) to the incubation system. The reaction was initiated by adding 5 mM UDPGA (10 µl) and incubated at 37°C for 15 min. The whole reaction was operated in a 1.5 ml centrifuge tube. Finally, the reaction was terminated by adding cold acetonitrile (100 µl) containing the genistein (IS). All solutions were thoroughly mixed for 3 min, then the mixture was centrifuged at 4°C at 16,000g for 15 min to precipitate the proteins completely. The supernatant was transferred and 10 µl was injected into the UPLC‐MS/MS system.
(§3) Kinetics parameters were obtained by fitting the data with Michaelis‐Menten equation (Equation 5) using […] GraphPad Prism® 9. (5) v=Vmax×s/Km+s where v (nmol/min/mg) is the velocity of metabolite formation, V max (nmol/min/mg) is the maximum velocity, K m (µM) is the Michaelis constant defined as the substrate concentration at half of V max, [S] (µM) is the substrate concentration

Stability study in HBSS = type: physicochemical; conditions: 37°C, 2 h
Method: The test was carried out by measuring the content of B, BG, and B6G before and after keeping in the HBSS solution at 37°C for 2 h. The time interval was selected according to the permeation experiment. The differences between the contents of the three samples before or after the incubation were calculated and expressed as the percentage of B, BG, and B6G remaining.

UGT1A8 = assay: Enzyme activity assay, intestinal microsome incubation: baicalein glucuronidation to B6G; type: in vitro ADME, human
Method: as §1, §2, §3

[1] = Permeation experiments on Caco-2 cell monolayer (two-way transport); type: in vitro ADME, human; conditions: human, read-out: corrected apparent permeability (Pcorrected); for Papp at 120 min, 5 μM: baicalein 5 μM; for Papp at 120 min, 15 μM: baicalein 15 μM
Method: (§4) Cell culture was performed as previously described.[15] For transport experiments, Caco-2 cells from passage number 20-30 were seeded at a density of 2 × 10^5 cells per well on transwell plate (a solid insert for cell culture contains porous permeable polycarbonate membrane) with polycarbonate membranes using a blood-counting chamber (QIU JING®). A 0.5 ml of culture medium with cells was added to the apical side (AP) and 1.5 ml of blank culture medium was added to the basolateral side (BL). During the incubation period, the medium on the AP and BL sides were changed every 2 days in the first week, and every day after a week until the 21st day. The permeation of samples was assessed in both directions at different concentrations. This experiment assessed the influence of different concentrations (%, v/v) of PEG400 on the permeation process of B, BG, and […]. […] Caco-2 cell monolayers with qualified monolayer membrane integrity were used for drug permeability experiments. Aspirated and discarded the original culture medium in the transwell plate, added pre-warmed (37°C) HBSS to wash 3 times, put it in the incubator for the last time and incubated for 30 min. […] For the AP-BL permeability (absorptive transport study), add 0.5 ml of samples (dissolved in HBSS) to the apical side (AP) as a supply chamber, and add 1.5 ml of pre-warmed HBSS to the basolateral side (BL) as a receiving chamber. Alternatively, in the permeation direction of BL-AP compartment (secretive transport study), add 1.5 ml of samples (dissolved in HBSS) to the BL side as a supply chamber, and add 0.5 ml of pre-warmed HBSS to the AP side as a receiving chamber. After the above steps, put the transwell plate on the thermostatic oscillator (Changzhou Wanhe Instrument Manufacturing Co., Ltd.) at 60 r/min. And sample 100 μl from the receiving pool or 10 μl from the supply chamber at 30, 60, 90, and 120 min depending on the experiment, and make up the same volume of blank pre-warmed HBSS. The sample taken from the transwell plate was precipitated with the 100 μl of methanol to precipitate the protein. After centrifugation at 16 000g for 15 min at 4°C, 70 μl of the supernatant was taken. And the content was determined by UPLC-MS/MS method to calculate the apparent permeability coefficient (P app) and efflux ratio (ER). The P app and ER of Caco-2 monolayers was measured and calculated as Equations ((2), (3), (4)): (2) Papp=dQ/dt/AC0 Where ΔQ/Δt (ng/ml·s) is the rate of permeability (ng/ml·s for B, BG, […]); A is for the membrane area (1.12 cm^2); C 0 (ng/ml/for B, BG, […]) is the initial concentration of the sample in the supply chamber. The apparent permeability might need to be corrected because of the effect of the marked amount of baicalein glucuronide.[17] Thus, the corrected permeability was calculated from the total rate of drug transport and the glucuronide excretion rate of bidirectional side divided by the membrane area (A) of the monolayer and the initial concentration of baicalein at the loading side (C 0): (3) Pcorrected=dQ/dt+Aex+Bex/AC0 (4) […] - BL Where P appBL-AP is the apparent permeability coefficient when the sample is added on the basolateral side; […]-BL is the apparent permeability coefficient when the sample is added on the apical side.

Caco-2 cell monolayer = assay: as above; type: in vitro ADME, human
Method: as §4

[2] = B6G formation (UGT1A8), 0.25% PEG400
[3] = B6G formation (UGT1A8), 0.5% PEG400
[4] = B6G formation (UGT1A8), 1% PEG400
[5] = B6G formation (UGT1A8), Control

## O=c1cc(-c2ccccc2)oc2cc(O)c(O)c(O)c12 [B, baicalein]
UGT1A9; 0.25% PEG400
  K m: 14.34 ± 1.92 µM
UGT1A9; 0.25% PEG400, listed as baicalein
  K m: 14.34 ± 1.92 µM
UGT1A9; 0.5% PEG400
  K m: 18.26 ± 3.61 µM
UGT1A9; 1% PEG400
  K m: 28.30 ± 3.33 µM
UGT1A9; 1% PEG400, listed as baicalein
  K m: 28.30 ± 3.33 µM
UGT1A9; Control
  K m: 22.05 ± 3.74 µM
Stability study in HBSS; 150 ng ml^−1
  Stability (percentage remaining): 98.11 ± 3.85%
Stability study in HBSS; 300 ng ml^−1
  Stability (percentage remaining): 99.70 ± 5.23%
Stability study in HBSS; 600 ng ml^−1
  Stability (percentage remaining): 98.43 ± 7.23%
UGT1A8; [2]
  K m: 28.44 ± 8.34 µM
  V max: 4.54 ± 0.40 nmol/min/mg protein
UGT1A8; B6G formation (UGT1A8), 0.25% PEG400, listed as baicalein
  K m: 28.44 ± 8.34 µM
UGT1A8; [3]
  K m: 38.86 ± 3.76 µM
  V max: 6.68 ± 0.29 nmol/min/mg protein
UGT1A8; [4]
  K m: 194.73 ± 48.82 µM
  V max: 24.78 ± 4.67 nmol/min/mg protein
UGT1A8; B6G formation (UGT1A8), 1% PEG400, listed as baicalein
  K m: 194.73 ± 48.82 µM
UGT1A8; [5]
  K m: 43.33 ± 2.63 µM
  V max: 4.64 ± 0.11 nmol/min/mg protein
UGT1A8; UGT1A8, 0.25%PEG400
  V max: 4.54 ± 0.4 nmol/min/mg
UGT1A8; UGT1A8, 0.5% PEG400
  V max: 6.68 ± 0.29 nmol/min/mg
UGT1A8; UGT1A8, 1% PEG400
  V max: 24.8 ± 4.67 nmol/min/mg
UGT1A8; UGT1A8, no PEG400
  V max: 4.64 ± 0.11 nmol/min/mg
[1]; Caco-2, 10 μM B loaded on AP side, 0.25% 1% PEG400 group
  Papp at 120 min, 10 μM: 99.7 ×10⁻⁶ cm/s
[1]; Caco-2, 10 μM B loaded on AP side, 0.25% PEG400 group
  Papp at 120 min, 10 μM: 100 ×10⁻⁶ cm/s
[1]; Caco-2, 10 μM B loaded on AP side, 0.5% PEG400 group
  Papp at 120 min, 10 μM: 94.7 ×10⁻⁶ cm/s
[1]; Caco-2, AP-BL
  Papp at 120 min, 5 μM: 73.2 ×10⁻⁶ cm/s
  Papp at 120 min, 15 μM: 53.5 ×10⁻⁶ cm/s
[1]; Caco-2, AP-BL, baicalein 10 μM
  Papp at 120 min, 10 μM: 78.4 ×10⁻⁶ cm/s
[1]; Caco-2, BL-AP, 10 μM B, 0.25% PEG400 group
  Papp at 120 min, 10 μM: 186 ×10⁻⁶ cm/s
[1]; Caco-2, BL-AP, 10 μM B, 0.5% PEG400 group
  Papp at 120 min, 10 μM: 159 ×10⁻⁶ cm/s
[1]; Caco-2, BL-AP, 10 μM B, 1% PEG400 group
  Papp at 120 min, 10 μM: 135 ×10⁻⁶ cm/s
[1]; Caco-2, BL-AP
  Papp at 120 min, 5 μM: 120 ×10⁻⁶ cm/s
  Papp at 120 min, 15 μM: 105 ×10⁻⁶ cm/s
[1]; Caco-2, BL-AP, baicalein 10 μM
  Papp at 120 min, 10 μM: 163 ×10⁻⁶ cm/s
Caco-2 cell monolayer; AL-BL experiment, baicalein 10 μM loaded with 0.5% (v/v) PEG400
  permeation within 2 h compared with the control group: significantly decreased
Caco-2 cell monolayer; BL-AP experiment, baicalein 10 μM loaded with 0.5% (v/v) PEG
  penetration within 2 h compared with the control group: decreased significantly
